Source: US20250206738A1, “WRN INHIBITORS” (Nimbus Wadjet, Inc., priority 2023, published 2025)

Key:
[1] = target: T1, human Werner helicase (WRN, Uniprot Q14191, amino acids 517-1235 with L1074F point mutation; WRN-BV08) (Homo sapiens, UniProt Q14191, L1074F); assay: WRN (BV08) ADP-Glo assay; assay type: biochemical; details: WRN-BV08 (aa 517-1235, L1074F); read-out: ADP-Glo_hWRN_IC50
T1 construct: Uniprot Q14191, amino acids 517-1235 with L1074F point mutation; 8xHis (C, cleaved yes); TEV cleavage site (ENLYFQG) (C, cleaved yes); made in house; host or cells: Sf9 insect cells (baculovirus, pFastBac)
Summary of the method: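 ADP formed by untagged WRN helicase fragment (aa 517-1235, L1074F; 0.15 nM final) on 0.1 nM DNA duplex with […], 60 min at 25 °C after 15 min compound preincubation, pH 7.5 Bicine buffer. Luminescent ADP-Glo readout; IC50 from 4-parameter fit of % inhibition.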

[2] = test system: p21 induction in HCT 116 cells; assay: p21 induction in cells (In-Cell Western, p21/GAPDH ratio); assay type: cell-based; details: Homo sapiens, HCT-116, 24 h, 24 h compound incubation, read-out: P21_EC50
Summary of the method: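 p21 and GAPDH signals quantified by In-Cell Western after 24 h compound exposure of HCT 116 cells (11 concentrations, 2-fold steps, usual top 10 μM). Percent activation from p21/GAPDH ratio relative to DMSO (low) and internal WRN inhibitor (high) controls; curve fit gave EC50.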

T1 sequence (Q14191 with tags, fused parts or gaps L1074F): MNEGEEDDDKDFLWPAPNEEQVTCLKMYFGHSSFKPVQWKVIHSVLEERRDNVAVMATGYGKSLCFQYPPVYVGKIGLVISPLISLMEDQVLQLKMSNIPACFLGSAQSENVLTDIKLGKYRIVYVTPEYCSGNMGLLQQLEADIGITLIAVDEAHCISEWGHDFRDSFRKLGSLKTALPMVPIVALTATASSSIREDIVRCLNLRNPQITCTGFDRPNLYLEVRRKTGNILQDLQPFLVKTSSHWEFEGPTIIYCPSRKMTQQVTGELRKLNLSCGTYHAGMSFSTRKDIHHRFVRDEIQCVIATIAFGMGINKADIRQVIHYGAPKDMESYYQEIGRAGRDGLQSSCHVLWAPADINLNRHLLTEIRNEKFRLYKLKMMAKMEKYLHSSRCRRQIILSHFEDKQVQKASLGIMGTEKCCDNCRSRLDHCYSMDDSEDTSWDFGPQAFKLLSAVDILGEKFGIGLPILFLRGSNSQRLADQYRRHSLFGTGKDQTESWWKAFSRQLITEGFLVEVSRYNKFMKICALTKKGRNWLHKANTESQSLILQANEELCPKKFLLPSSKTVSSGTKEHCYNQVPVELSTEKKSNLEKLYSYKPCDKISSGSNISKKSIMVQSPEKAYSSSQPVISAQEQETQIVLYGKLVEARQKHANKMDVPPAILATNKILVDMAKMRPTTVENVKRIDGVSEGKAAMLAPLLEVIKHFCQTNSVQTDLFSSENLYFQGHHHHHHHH

SMILES | IC50 [1] [nM] | EC50 [2] [nM]
CCc1c(N2CCN(C(=O)c3c(O)ccc4ncoc34)CC2)c(=O)n2nc(-c3ccnc(OC)c3)nc2n1CC(=O)NC12CC(CC)(C1)C2 [I-23, 2-(5-ethyl-6-(4-(6-hydroxybenzo[d]oxazole-7-carbonyl)piperazin-1-yl)-2-(2-methoxypyridin-4-yl)-7-oxo-[1,2,4]triazolo[1,5-a]pyrimidin-4(7H)-yl)-N-(3-ethylbicyclo[1.1.1]pentan-1-yl)acetamide] | 5 to 50 | ≤ 500
CCc1c(N2CCN(C(=O)c3c(O)ccc4ncoc34)CC2)c(=O)n2nc(-c3ccnc(OC)c3)nc2n1CC(=O)NC12CC(C(F)(F)C(F)F)(C1)C2 [I-41, 2-(5-ethyl-6-(4-(6-hydroxybenzo[d]oxazole-7-carbonyl)piperazin-1-yl)-2-(2-methoxypyridin-4-yl)-7-oxo-[1,2,4]triazolo[1,5-a]pyrimidin-4(7H)-yl)-N-(3-(1,1,2,2-tetrafluoroethyl)bicyclo[1.1.1]pentan-1-yl)acetamide] | 5 to 50 | ≤ 500
CCc1c(N2CCN(C(=O)c3ncnc(C)c3O)CC2)c(=O)c2sc(-c3ccnc(OC)c3)nc2n1CC(=O)NC12CC(C(F)(F)F)(C1)C2 [I-25, 2-(5-ethyl-6-(4-(5-hydroxy-6-methylpyrimidine-4-carbonyl)piperazin-1-yl)-2-(2-methoxypyridin-4-yl)-7-oxothiazolo[4,5-b]pyridin-4(7H)-yl)-N-(3-(trifluoromethyl)bicyclo[1.1.1]pentan-1-yl)acetamide] | 5 to 50 | > 5000
CCc1c(N2CCN(C(=O)c3c(O)ccc4ncoc34)CC2)c(=O)n2nc(-c3ccnc(OC)c3)nc2n1CC(=O)NC12C3C4C1C1C2C3C41C(F)(F)F (stereo not shown) [I-220, 2-(5-ethyl-6-(4-(6-hydroxybenzo[d]oxazole-7-carbonyl)piperazin-1-yl)-2-(2-methoxypyridin-4-yl)-7-oxo-[1,2,4]triazolo[1,5-a]pyrimidin-4(7H)-yl)-N-(4-(trifluoromethyl)cuban-1-yl)acetamide] | 5 to 50 | 500 to 2000
CCc1c(N2CCN(C(=O)c3ncc4c(c3O)CCO4)CC2)c(=O)n2nc(C3=CCOCC3)nc2n1CC(=O)NC12CC(C(C)C)(C1)C2 [I-15, 2-(2-(3,6-dihydro-2H-pyran-4-yl)-5-ethyl-6-(4-(4-hydroxy-2,3-dihydrofuro[2,3-c]pyridine-5-carbonyl)piperazin-1-yl)-7-oxo-[1,2,4]triazolo[1,5-a]pyrimidin-4(7H)-yl)-N-(3-isopropylbicyclo[1.1.1]pentan-1-yl)acetamide] | 5 to 50 | 500 to 2000
CCc1c(N2CCN(C(=O)CC3CCCC(=O)N3)[C@H]3CC[C@@H]32)c(=O)c2nn(C3=CCOCC3)nc2n1CC(=O)NC12CC(C(C)C)(C1)C2 (stereo partly drawn) [I-235, 2-(2-(3,6-dihydro-2H-pyran-4-yl)-5-ethyl-7-oxo-6-((1S,6S)-5-(2-(6-oxopiperidin-2-yl)acetyl)-2,5-diazabicyclo[4.2.0]octan-2-yl)-2,7-dihydro-4H-[1,2,3]triazolo[4,5-b]pyridin-4-yl)-N-(3-isopropylbicyclo[1.1.1]pentan-1-yl)acetamide] | 5 to 50 | > 5000
CCc1c(N2CCN(C(=O)c3ncc4c(c3O)CCO4)CC2)c(=O)n2nc(C3=CCN(C(=O)COC)CC3)nc2n1CC(=O)NC12CC(C(F)(F)F)(C1)C2 [I-21, 2-(5-ethyl-6-(4-(4-hydroxy-2,3-dihydrofuro[2,3-c]pyridine-5-carbonyl)piperazin-1-yl)-2-(1-(2-methoxyacetyl)-1,2,3,6-tetrahydropyridin-4-yl)-7-oxo-[1,2,4]triazolo[1,5-a]pyrimidin-4(7H)-yl)-N-(3-(trifluoromethyl)bicyclo[1.1.1]pentan-1-yl)acetamide] | 5 to 50 | 2000 to 5000
CCc1c(N2CCN(C(=O)c3ncnc(C)c3O)[C@H]3CC[C@@H]32)c(=O)c2nc(N(C)C)cnc2n1CC(=O)NC12CC(C3CC3)(C1)C2 [I-232, N-(3-cyclopropylbicyclo[1.1.1]pentan-1-yl)-2-(2-(dimethylamino)-6-ethyl-7-((1S,6S)-5-(5-hydroxy-6-methylpyrimidine-4-carbonyl)-2,5-diazabicyclo[4.2.0]octan-2-yl)-8-oxopyrido[2,3-b]pyrazin-5(8H)-yl)acetamide] | 5 to 50 | 500 to 2000
CCc1c(N2CCN(C(=O)c3ncnc(C)c3O)CC2)c(=O)n2nc(C3=CCOCC3)nc2n1CC(=O)NC12CC(C(C)C)(C1)C2 [I-234, 2-(2-(3,6-dihydro-2H-pyran-4-yl)-5-ethyl-6-(4-(5-hydroxy-6-methylpyrimidine-4-carbonyl)piperazin-1-yl)-7-oxo-[1,2,4]triazolo[1,5-a]pyrimidin-4(7H)-yl)-N-(3-isopropylbicyclo[1.1.1]pentan-1-yl)acetamide] | 5 to 50 | 500 to 2000
CCc1c(N2CCN(C(=O)c3c(O)ccc4ncoc34)CC2)c(=O)n2nc(C3=CCOCC3)nc2n1CC(=O)NC12CC(C3CC3)(C1)C2 [I-29, N-(3-cyclopropylbicyclo[1.1.1]pentan-1-yl)-2-(2-(3,6-dihydro-2H-pyran-4-yl)-5-ethyl-6-(4-(6-hydroxybenzo[d]oxazole-7-carbonyl)piperazin-1-yl)-7-oxo-[1,2,4]triazolo[1,5-a]pyrimidin-4(7H)-yl)acetamide] | 5 to 50 | ≤ 500
CCc1c(N2CCN(C(=O)c3ccccc3C(=O)O)[C@H]3CC[C@@H]32)c(=O)c2nn(-c3ccnc(OC)c3)nc2n1CC(=O)NC12CC(C(C)C)(C1)C2 [I-207, 2-((1S,6S)-5-(5-ethyl-4-(2-((3-isopropylbicyclo[1.1.1]pentan-1-yl)amino)-2-oxoethyl)-2-(2-methoxypyridin-4-yl)-7-oxo-4,7-dihydro-2H-[1,2,3]triazolo[4,5-b]pyridin-6-yl)-2,5-diazabicyclo[4.2.0]octane-2-carbonyl)benzoic acid] | 5 to 50 | > 5000
CCc1c(N2CCN(C(=O)c3c(O)ccc4ncoc34)CC2)c(=O)n2nc(N(C)C)nc2n1CC(=O)NC12CC(C3CCC3)(C1)C2 [I-203, N-(3-cyclobutylbicyclo[1.1.1]pentan-1-yl)-2-(2-(dimethylamino)-5-ethyl-6-(4-(6-hydroxybenzo[d]oxazole-7-carbonyl)piperazin-1-yl)-7-oxo-[1,2,4]triazolo[1,5-a]pyrimidin-4(7H)-yl)acetamide] | 5 to 50 | ≤ 500
CCc1c(N2CCN(C(=O)c3ncc4c(c3O)CCO4)CC2)c(=O)n2nc(C3=CCOCC3)nc2n1CC(=O)NC12CC(C3CCC3)(C1)C2 [I-211, N-(3-cyclobutylbicyclo[1.1.1]pentan-1-yl)-2-(2-(3,6-dihydro-2H-pyran-4-yl)-5-ethyl-6-(4-(4-hydroxy-2,3-dihydrofuro[2,3-c]pyridine-5-carbonyl)piperazin-1-yl)-7-oxo-[1,2,4]triazolo[1,5-a]pyrimidin-4(7H)-yl)acetamide] | 5 to 50 | 500 to 2000
CCc1c(N2CCN(C(=O)c3ncnc(C)c3O)[C@H]3CC[C@@H]32)c(=O)c2nc(N(C)C)cnc2n1CC(=O)NC1CC2(CC(C)C2)C1 (stereo partly drawn) [I-238, 2-(2-(dimethylamino)-6-ethyl-7-((1S,6S)-5-(5-hydroxy-6-methylpyrimidine-4-carbonyl)-2,5-diazabicyclo[4.2.0]octan-2-yl)-8-oxopyrido[2,3-b]pyrazin-5(8H)-yl)-N-(6-methylspiro[3.3]heptan-2-yl)acetamide] | 50 to 100 | > 5000
